According to US9545105B2, “1-(heterocyclic carbonyl) piperidines” (BAYER INTELLECTUAL PROPERTY GMBH, priority 2010, dated 2017):

Columns and labels:
Phakopsora pachyrhizi = assay: In vivo protective test on Phakopsora pachyrhizi (soybeans); details: 250 ppm of active ingredient, evaluated 11 days after inoculation
Leptosphaeria nodorum = assay: In vivo preventive test on Leptosphaeria nodorum (wheat); details: 500 ppm of active ingredient, evaluated 8 days after inoculation
Protocol: (§1) Solvent: 49 parts by weight of N,N-dimethylacetamide Emulsifier: 1 part by weight of alkylaryl polyglycol ether To produce a suitable preparation of active compound, 1 part by weight of active compound or active compound combination is mixed with the stated amounts of solvent and emulsifier, and the concentrate is diluted with water to the desired concentration. To test for preventive activity, young plants are sprayed with the preparation of active compound or active compound combination at the stated rate of application. After the spray coating has been dried, the plants are sprayed with a spore suspension of Leptosphaeria nodorum. The plants remain for 48 hours in an incubation cabinet at approximately 20° C. and a relative atmospheric humidity of approximately 100%. The plants are placed in the greenhouse at a temperature of approximately 22° C. and a relative atmospheric humidity of approximately 80%. The test is evaluated 8 days after the inoculation. 0% means an efficacy which corresponds to that of the untreated control, while an efficacy of 100% means that no disease is observed.

Pyrenophora teres = assay: In vivo preventive test on Pyrenophora teres (barley); details: 500 ppm of active ingredient, evaluated 7-9 days after inoculation
In short: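 Young barley plants sprayed with compound in DMF/alkylaryl polyglycol ether emulsion; inoculated with P. teres spores one day later. 48 h at 22 °C, 100% humidity, then greenhouse ~20 °C, ~80% humidity; efficacy scored 7-9 days post-inoculation, 0% = untreated, 100% = no disease.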

Septoria tritici = assay: In vivo preventive test on Septoria tritici (wheat); details: 500 ppm of active ingredient, evaluated 21 days after inoculation
Protocol: as §1, with “suspension of Septoria tritici. The plants” for “suspension of Leptosphaeria nodorum. The plants”, “of approximately 100% and afterwards for 60 hours at approximately 15° C. in a translucent incubation cabinet at a relative atmospheric humidity of approximately 100%. The” for “of approximately 100%. The”, “of approximately 15° C. and” for “of approximately 22° C. and”, “is evaluated 21 days after” for “is evaluated 8 days after”

Puccinia triticina = assay: In vivo preventive test on Puccinia triticina (wheat); details: 500 ppm of active ingredient, evaluated 8 days after inoculation
Protocol: as §1, with “Puccinia triticina.” for “Leptosphaeria nodorum.”, “20°” for “22°”

SMILES: Cc1cc(C)cc(C2CCCCN2C(=O)c2c(C)nn(C)c2F)c1 (stereo not shown) [Example 10]
- Efficacy (Phakopsora pachyrhizi): 98%
- Efficacy (Leptosphaeria nodorum): 71%
- Efficacy (Pyrenophora teres): 100%
- Efficacy (Septoria tritici): 70%
- Efficacy (Puccinia triticina): 88%

SMILES: CCc1nn(C)c(F)c1C(=O)N1CCCCC1c1cc(C)cc(C)c1 (stereo not shown) [Example 11]
- Efficacy (Phakopsora pachyrhizi): 96%
- Efficacy (Pyrenophora teres): 100%
- Efficacy (Septoria tritici): 100%
- Efficacy (Puccinia triticina): 100%

SMILES: CCc1nn(C)c(F)c1C(=O)N1CCCCC1c1ccc(Cl)cc1 (stereo not shown) [Example 54]
- Efficacy (Leptosphaeria nodorum): 100%
- Efficacy (Pyrenophora teres): 100%
- Efficacy (Septoria tritici): 100%
- Efficacy (Puccinia triticina): 100%

SMILES: CCC(c1ccccc1)C1CCCCN1C(=O)c1c(C(F)F)nn(C)c1F (stereo not shown) [Example 136]
- Efficacy (Leptosphaeria nodorum): 100%
- Efficacy (Pyrenophora teres): 100%
- Efficacy (Septoria tritici): 100%

SMILES: CCC(c1ccccc1)C1CCCCN1C(=S)c1c(C(F)F)nn(C)c1F (stereo not shown) [Example 140]
- Efficacy (Leptosphaeria nodorum): 93%
- Efficacy (Pyrenophora teres): 100%
- Efficacy (Septoria tritici): 100%
